Data taken from PubChem BioAssay (NCI).
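Method: 48-hour compound exposure of cells in 96-well plates, five concentrations, linear interpolation of endpoints. Abbreviation: GI50, concentration required for 50% inhibition of growth. TGI denotes the concentration required for complete inhibition of growth.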

What was measured:
Test in all cases: NCI-60 cell line screen, 48 h
SK-MEL-2 melanoma = system: SK-MEL-2 melanoma
A498 renal = system: A498 renal
HS 578T breast = system: HS 578T breast
NCI-H522 lung = system: NCI-H522 lung
T-47D breast = system: T-47D breast
K-562 leukemia = system: K-562 leukemia
MDA-MB-231 breast = system: MDA-MB-231 breast
HCT-15 colon = system: HCT-15 colon
MOLT-4 leukemia = system: MOLT-4 leukemia
HL-60(TB) leukemia = system: HL-60(TB) leukemia

| SMILES | GI50 (SK-MEL-2 melanoma) | TGI (SK-MEL-2 melanoma) | GI50 (A498 renal) | TGI (A498 renal) | GI50 (HS 578T breast) | TGI (HS 578T breast) | GI50 (NCI-H522 lung) | TGI (NCI-H522 lung) | GI50 (T-47D breast) | TGI (T-47D breast) | GI50 (K-562 leukemia) | TGI (K-562 leukemia) | GI50 (MDA-MB-231 breast) | TGI (MDA-MB-231 breast) | GI50 (HCT-15 colon) | TGI (HCT-15 colon) | GI50 (MOLT-4 leukemia) | TGI (MOLT-4 leukemia) | GI50 (HL-60(TB) leukemia) | TGI (HL-60(TB) leukemia) |
| --- | --- | --- | --- | --- | --- | --- | --- | --- | --- | --- | --- | --- | --- | --- | --- | --- | --- | --- | --- | --- |
| CC1SC(c2ccc(Cl)cc2Cl)N(NC(=O)C(O)c2ccccc2)C1=O (stereo not given) | > 100000 nM | > 100 µM | > 100000 nM | > 100 µM | > 100 µM | > 100 µM | 41.9 µM | > 100 µM | > 100 µM | > 100 µM | 39700 nM | > 100 µM | 46200 nM | > 100 µM | 61.3 µM | > 100 µM | 34500 nM | > 100 µM | – | – |
| COc1cc(CNc2oc(-c3ccccc3)c(-c3ccccc3)c2C#N)cc(CN2CCN(C)CC2)c1O | 2170 nM | 4.56 µM | 1550 nM | 3.48 µM | 2.26 µM | 6.61 µM | 1.87 µM | 3.95 µM | 1.91 µM | 4.17 µM | 1510 nM | 4.16 µM | 2010 nM | 3.93 µM | 1.32 µM | 2.77 µM | 1960 nM | 4.24 µM | 1790 nM | 4.19 µM |
| O=C(Nc1cccc(C(F)(F)F)c1)Oc1ccc(Cl)c2cccnc12 | 2070 nM | 5.55 µM | 3820 nM | 12.4 µM | 3.56 µM | > 24 µM | 0.906 µM | 4.28 µM | 1.8 µM | > 28.2 µM | 1020 nM | > 100 µM | 2110 nM | 6.15 µM | 0.584 µM | 9.19 µM | 860 nM | 22.8 µM | 776 nM | – |
| Nc1ccc(/C=C/c2ccc3cccnc3c2)cc1 | – | – | – | > 100 µM | – | > 100 µM | – | – | – | > 100 µM | – | > 100 µM | – | > 100 µM | – | > 100 µM | – | > 100 µM | – | > 100 µM |
| CC(SCc1ccccc1)C(=O)O (stereo not given) | – | > 100 µM | – | > 100 µM | – | > 100 µM | – | > 100 µM | – | > 100 µM | – | > 100 µM | – | > 100 µM | – | > 100 µM | – | > 100 µM | – | > 100 µM |
| O=c1[nH]c(=O)n(C2CC(O)C(CO)O2)cc1C(F)(F)F (stereo not given) | > 100000 nM | > 100 µM | – | > 92 µM | > 100 µM | > 100 µM | 18.3 µM | > 100 µM | 3.34 µM | > 100 µM | – | > 100 µM | > 100000 nM | > 100 µM | 46 µM | > 100 µM | 1650 nM | > 100 µM | 409 nM | – |
| Cc1cc(O)c(-c2ccc([C@@H](C)CN(C)C)cc2)c2c1[nH]c(=O)c1sccc12 | 679 nM | 3.04 µM | 265 nM | 0.929 µM | 0.207 µM | 20.8 µM | 0.436 µM | 2.9 µM | 0.309 µM | 5.19 µM | 482 nM | > 60.5 µM | 608 nM | 28.6 µM | 1.42 µM | 31.3 µM | 1690 nM | 17.7 µM | 453 nM | 7.38 µM |
| O=C1N=C(Nc2nc(-c3csc(NC4=NC(=O)/C(=C\c5ccccc5)S4)n3)cs2)S/C1=C/c1ccccc1 | > 50000 nM | > 50 µM | > 50000 nM | > 50 µM | > 50 µM | > 50 µM | 38.5 µM | > 50 µM | > 50 µM | > 50 µM | 6280 nM | 48.9 µM | 4780 nM | 18.8 µM | 11.2 µM | > 50 µM | 3020 nM | > 50 µM | 14300 nM | 36.8 µM |
| O=C(O)c1ccc(SSc2ccc(C(=O)O)cn2)nc1 | – | > 100 µM | – | > 100 µM | – | > 100 µM | – | > 100 µM | – | > 100 µM | – | > 100 µM | – | > 100 µM | – | > 100 µM | – | > 100 µM | – | > 100 µM |
| C[C@]12C[C@H](O)[C@H]3[C@@H](CCC4=CC(=O)CC[C@@]43C)[C@@H]1CC[C@@H]2c1csc(-c2ccccc2)n1 | – | > 90.5 µM | – | > 100 µM | – | > 80 µM | – | > 100 µM | – | > 100 µM | – | > 100 µM | – | > 77.8 µM | – | > 100 µM | – | – | – | – |
| C=C1C(=O)O[C@H]2C[C@@H]1C(=O)CC(C)CCCC(C)=CCC[C@@]2(C)O (stereo not given in full) | – | > 25 µM | – | > 25 µM | – | > 25 µM | – | > 25 µM | – | > 25 µM | – | – | – | > 25 µM | – | > 25 µM | – | > 25 µM | – | > 25 µM |
| COc1cc(/C=C2\CCCC3=C2N=C2SC(C)=NN2C3c2cc(OC)c(OC)c(OC)c2)cc(OC)c1OC (stereo not given) | > 100000 nM | > 100 µM | 153 nM | > 100 µM | > 100 µM | > 100 µM | – | – | > 100 µM | > 100 µM | 420 nM | > 100 µM | – | – | – | – | 391 nM | > 100 µM | – | – |
| CCn1c2ccccc2c2cc(C(=O)c3ccc(C)c4ccccc34)ccc21 | 324 nM | 1.81 µM | 282 nM | 1.15 µM | 0.756 µM | > 100 µM | – | – | 0.76 µM | > 100 µM | 338 nM | > 100 µM | 824 nM | > 100 µM | 0.329 µM | > 100 µM | 57.8 nM | > 100 µM | 307 nM | 2 µM |
| CO/N=C(\COc1ccc2oc(-c3ccccc3)cc(=O)c2c1)c1ccc(F)cc1 | 24400 nM | 73.3 µM | 29100 nM | 82.9 µM | 23.2 µM | 71 µM | 15.4 µM | 40.5 µM | 21.5 µM | 59.3 µM | 81200 nM | > 100 µM | 18700 nM | 39 µM | 40.2 µM | > 100 µM | – | – | 27300 nM | > 100 µM |
| CC1=NOC(=O)/C1=C/c1ccc2c(c1)OCO2 | – | 39 µM | – | 62.3 µM | – | > 100 µM | – | > 100 µM | – | > 100 µM | – | > 100 µM | – | 53.9 µM | – | 45.3 µM | – | – | – | – |
| CC(C)(C)OC(=O)N[C@@H](Cc1ccccc1)C(=O)N(Cc1ccccc1)C1(C(=O)NCc2ccccc2)CCN(Cc2ccccc2)CC1 | – | – | 1430 nM | 6.36 µM | 4.22 µM | > 100 µM | 4.02 µM | > 100 µM | 2.89 µM | > 100 µM | 3390 nM | > 100 µM | 3010 nM | 79 µM | 3.16 µM | > 100 µM | 1830 nM | 6.33 µM | 2500 nM | 6.1 µM |
| N#Cc1cc(S(=O)(=O)Nc2nc3ccccc3o2)c(SCc2ccccc2)cc1Cl | 22300 nM | 53.4 µM | 21300 nM | 43.7 µM | 25.4 µM | 62 µM | 17 µM | 40.4 µM | 23.7 µM | 80.9 µM | 38800 nM | > 100 µM | 24800 nM | 62.9 µM | 24.6 µM | 60.1 µM | – | – | – | – |
| CCOC(=O)C1=C(C)NC(c2ccco2)=C(C#N)C1c1cccc([N+](=O)[O-])c1 (stereo not given) | 11.5 nM | 24.3 µM | – | – | – | 0.0885 µM | – | 0.0371 µM | 20.9 µM | – | 19.4 nM | – | 44.3 nM | 4.53 µM | – | – | 44.5 nM | – | – | – |
| O=C1NC(c2ccccc2)C2(C(=O)O)CN(C3CC3)c3cc(N4CCNCC4)c(F)cc3C2N1 (stereo not given) | > 100000 nM | > 100 µM | – | – | > 100 µM | > 100 µM | > 100 µM | > 100 µM | > 100 µM | > 100 µM | > 100000 nM | > 100 µM | > 100000 nM | > 100 µM | > 100 µM | > 100 µM | > 100000 nM | > 100 µM | > 100000 nM | > 100 µM |
| COC(C)C(O)(C(=O)OCC1=CCN2CCC(O)C12)C(C)(C)O (stereo not given) | – | > 100 µM | – | > 100 µM | – | > 100 µM | – | > 100 µM | – | > 100 µM | – | – | – | > 100 µM | – | > 100 µM | – | > 100 µM | – | > 100 µM |
| COc1ccc2[nH]c(C(=O)OCc3ccc4c(Cl)cc(Cl)c(O)c4n3)cc2c1 | 1610 nM | 3.37 µM | 1910 nM | 3.73 µM | 1.28 µM | 3.81 µM | 1.19 µM | 2.99 µM | – | – | 355 nM | 3.05 µM | 1020 nM | 2.18 µM | 0.698 µM | 2.44 µM | 1030 nM | 3.72 µM | 1500 nM | 3.84 µM |
| CCOC(=O)/C=C/c1cccc(F)c1 | – | > 100 µM | – | > 100 µM | – | – | – | > 100 µM | – | > 100 µM | – | > 100 µM | – | > 100 µM | – | > 100 µM | – | > 100 µM | – | > 100 µM |
| COc1cc(C(=O)c2cocc2C(=O)c2ccc3c(c2)OCO3)cc(OC)c1OC | – | > 41.7 µM | – | 26.2 µM | – | 5.27 µM | – | 1.85 µM | – | – | – | > 94.9 µM | – | 48.5 µM | – | 35.3 µM | – | > 74.7 µM | – | 2.06 µM |
| COc1ccc2nc3cc(Cl)ccc3c(Nc3cc(CN4CCCC4)c(O)c(CN4CCCC4)c3)c2n1 | 1730 nM | 3.26 µM | – | – | – | – | 1.47 µM | 3.14 µM | 2.74 µM | 9.55 µM | – | – | 1860 nM | 8.17 µM | 1.18 µM | 10.6 µM | 410 nM | 2.51 µM | 2070 nM | 4.78 µM |
